These results are taken from patent publication US7718705B1, “Methods of using rapid-onset selective serotonin reuptake inhibitors for treating sexual dysfunction” (Eli Lilly and Company, priority 2000, dated 2010).

Where two headings read alike, the source gives them in different places.

Data set [1] deals with men presenting with premature ejaculation (PE) as defined in the DSM IV. In words: Ejaculatory latency (stopwatch, intromission to ejaculation) in randomized, double-blind, three way crossover evaluation of prn dapoxetine. It counts as in vivo, human. As to conditions: for Percentage of patients achieving increases of at least one minute in EL: placebo 14%; for Increase of mean ejaculatory latency from baseline: placebo group 24 seconds. As to the method: The results of an interim analysis of a randomized, double-blind, three way crossover evaluation of two prn doses of dapoxetine (20 mg and 40 mg) in the treatment of premature ejaculation (hereinafter referred to as “PE”) are disclosed in tables 8a and 8b. Each patient is assigned to receive 4 to 6 administrations of each of the 3 study doses, in a random order, over 3 periods of not more than 4 weeks each. The interim analysis of the data was conducted following completion of the first treatment period.
The study comprised 155 men, aged 19 to 60, presenting with PE as defined in the DSM IV. All patients were involved in a stable monogamous sexual relationship of at least 6 months duration and reported a history of intravaginal ejaculatory latency (hereinafter referred to as “EL”) of less than 2 minutes in greater than half of their intercourse experiences. History of significant cardiovascular disease or psychiatric disorder, uncontrolled hypertension, erectile dysfunction, and substance abuse were criteria for exclusion.
(§1) During a lead-in period (maximum of 4 weeks), patients were asked to record ejaculatory latency a minimum of 4 times. Latency is defined as the time span, as measured by the patient's partner via a stopwatch, from vaginal intromission to ejaculation. At the completion of the lead-in period, patients were randomized to treatment with either 20 mg or 40 mg dapoxetine or placebo. Study medication was to be ingested 1 to 3 hours prior to a planned intercourse event. The time study drug was taken and time of intercourse were recorded in an event log. Patients were instructed to attempt intercourse at least 4 times over the 4 week treatment period and were issued a sufficient supply of medication to complete 6 attempts at intercourse. The outcome of each attempt (success of intromission and EL) was recorded in the event log initialed by the patient and their partner. Patients returned to the study clinic for a follow-up visit after 4 to 6 attempts at intercourse were completed. At visits 4, 5, and 6 patients were asked to answer the Global Satisfaction Questions and to complete the PEQ.
Of the 155 patients randomized, 145 completed the treatment period. 54 patients were randomized to the placebo group, while 56 and 45 received 20 mg or 40 mg dapoxetine respectively. Although patients were randomly assigned to treatment sequences in blocks of 6, the imbalance in the number of patients randomized to each group was due to the random distribution of the 40 mg assignment to later allocations within the blocks. The intent-to-treat population was comprised of 143 patients, each of whom had baseline and follow-up data for analysis. Analysis of EL was conducted on the 138 patients who had latency data at baseline and at least one post-medication event. The percentage of patients with data sufficient for inclusion in the analysis of EL was lower in the 40 mg group than in either of the other 2 groups. This difference may be attributable to the smaller size of the 40 mg group, such that each patient represents a greater percentage of the whole, rather than being a function of the dose administered. […]

A short description of data set [2]: Plasma concentration profile in volunteers (FIG. 1). The data set is classed as in vivo, human. Particulars: 20 volunteers, 40 mg dapoxetine at time zero of the 14th day of daily dosing.
The subject of data set [3] is men presenting with premature ejaculation (PE) as defined in the DSM IV. Briefly: Global Satisfaction Question in the crossover evaluation of prn dapoxetine. It counts as in vivo, human.
Source text: The patient-perceived-benefit of prn dosing method with dapoxetine, or a pharmaceutically acceptable salt thereof, can be determined, for example, through administration of a global satisfaction question, such as:
“How would you complete the following statement?
The new bottle of medication that I received at my previous visit made my premature ejaculation problem:
Measures for “ejaculatory latency” and “number of thrusts prior to ejaculation” should be recorded as the average of the 4-6 events recorded in the event logs for that treatment period. Subjects who ejaculated prior to intromission should have a zero recorded for both “ejaculatory latency” and “number of thrusts prior to ejaculation.” “Measures for Subject and Partner satisfaction scores (global impression)” and “Subject and Partner ejaculatory (or sexual) quality-of-life questionnaire” for each treatment period should be based on the score collected at the visit immediately following each treatment period.
as §1
The results of a final analysis of a randomized, double-blind, three way crossover evaluation of two prn doses of dapoxetine (20 mg and 40 mg) in the treatment of premature ejaculation are disclosed in the following tables. The final analyses of the data was conducted following completion of all 3 treatment periods.

For data set [4], the system named is patients (premature ejaculation). As to conditions: fluoxetine continuous then prn dosing; cited from earlier work.
The test system is the same in data set [5]. As to conditions: cited from earlier work.
Data set [6] has as its system patients suffering from premature ejaculation. Particulars: 26 patients, cited from earlier work.
The test system of data set [7] is potent men with premature ejaculation. Particulars: 37 men, 50 mg oral sertraline; cited from earlier work.
Setting [8] is: final analysis, all patients, 20 mg prn.
The mark [9] stands for this setting: final analysis, all patients, 40 mg prn.
The mark [10] stands for this setting: patients with baseline less than one minute, 20 mg prn.
Setting [11] is: patients with baseline less than one minute, 40 mg prn.
Setting [12] is: patients with baseline less than two minutes, 20 mg prn.
[13] abbreviates: patients with baseline less than two minutes, 40 mg prn.
The mark [14] stands for this setting: patients with baseline ≧ one minute, 40 mg prn.
Where [15] appears, read: patients with baseline ≧ two minutes, 40 mg prn.

With `CN(C)[C@@H](CCOc1cccc2ccccc12)c1ccccc1` [Dapoxetine, (S)-(+)-N,N-Dimethyl-1-phenyl-3-(1-naphthalenyloxy)-propanamine], the “Ejaculatory Latency (LS Mean)” value is 2.64 min in data set [1] ("Moderate" patients, baseline 1.68, 20 mg prn); 2.93 min in data set [1] ("Moderate" patients, baseline 1.68, 40 mg prn); 2.60 min in data set [1] ("Severe" patients, baseline 1.23, 20 mg prn); 3.09 min in data set [1] ("Severe" patients, baseline 1.23, 40 mg prn); 2.78 min in data set [1] (setting [8]); 3.19 min in data set [1] (setting [9]). The “Ejaculatory Latency (LS Mean)” value in data set [1] (final analysis, patients with baseline less than one minute, 20 mg prn) amounted to 1.2 min; in data set [1] (final analysis, patients with baseline less than one minute, 40 mg prn), 1.7 min; in data set [1] (interim analysis, follow-up, 20 mg prn, adjusted for baseline and sample size), 2.41 min; in data set [1] (interim analysis, follow-up, 40 mg prn, adjusted for baseline and sample size) it was 2.52 min; in data set [1] (setting [12]) it was 2.4 min; in data set [1] (setting [13]), 2.5 min. Besides, the “Ejaculatory Latency (LS Mean)” value is 4.24 min in data set [1] (patients with baseline ≧ one minute, baseline 1.90, 40 mg prn); 6.59 min in data set [1] (patients with baseline ≧ two minutes, baseline 3.19, 40 mg prn); 2.37 ± 0.24 min in data set [1] (recorded after administration of a single dose, 20 mg); 1.98 ± 0.27 min in data set [1] (recorded after administration of a single dose, 40 mg). The “Change in Latency (LS Mean)” value was found to be 0.94 min in data set [1] ("Moderate" patients, 20 mg prn); 1.27 min in data set [1] ("Moderate" patients, 40 mg prn); 1.42 min in data set [1] ("Severe" patients, 20 mg prn); 1.93 min in data set [1] ("Severe" patients, 40 mg prn); 1.43 min in data set [1] (setting [8]); 1.86 min in data set [1] (setting [9]). The “Change in Latency (LS Mean)” value worked out at 0.6 min in data set [1] (setting [10]); 1.3 min in data set [1] (setting [11]); 1.4 min in data set [1] (setting [12]); 1.5 min in data set [1] (setting [13]); 2.40 min in data set [1] (setting [14]); 3.43 min in data set [1] (setting [15]). In data set [1] (first dose administered, no lead-in period (Table 12)), the “Treatment of premature ejaculation with the first dose (in words)” value is “can effectively and unexpectedly treat premature ejaculation with the first dose administered to a patient”. Besides, the “Ejaculatory latency, Mean ± S.D.” value in data set [1] (interim analysis, follow-up, first treatment period, 20 mg prn, 50 patients) was determined as 2.3 ± 2.26 min; in data set [1] (interim analysis, follow-up, first treatment period, 40 mg prn, 37 patients) it was 2.3 ± 2.19 min; in data set [1] (interim analysis, follow-up, 20 & 40 mg combined, 87 patients) it was 2.3 ± 2.22 min. Moreover, the “Ejaculatory latency, Range” value was in the range of 0.1 to 11.4 min in data set [1] (interim analysis, follow-up, 20 mg prn); 0.0 to 9.8 min in data set [1] (interim analysis, follow-up, 40 mg prn); 0.0 to 11.4 min in data set [1] (interim analysis, follow-up, 20 & 40 mg combined). The “Percentage of patients achieving increases of at least one minute in EL” value came to 22% in data set [1] (interim analysis, 20 mg prn) and 24% in data set [1] (interim analysis, 40 mg prn). In addition, the “Increase of mean ejaculatory latency from baseline” value in data set [1] (interim analysis, 20 mg prn) is “one”; in data set [1] (interim analysis, 40 mg prn), “one”. In addition, the “Plasma concentration profile (in words)” value in data set [2] is recorded as “rapid-onset to reach peak plasma concentration followed by rapid metabolism (i.e. short half-life)”. Besides, the “Global Satisfaction: Better/Much Better” value is 34.4% in data set [3] ("Moderate" patients, 20 mg prn); 50% in data set [3] ("Moderate" patients, 40 mg prn); 17.2% in data set [3] ("Severe" patients, 20 mg prn); 25.5% in data set [3] ("Severe" patients, 40 mg prn); 13% in data set [3] (setting [10]); 24% in data set [3] (setting [11]). Further, the “Global Satisfaction: Better/Much Better” value in data set [3] (setting [12]) amounted to 23%; in data set [3] (setting [13]), 29%; in data set [3] (setting [14]), 36.4%; in data set [3] (setting [15]), 39.1%. In addition, the “Global Satisfaction: ≧Slightly Better” value in data set [3] ("Moderate" patients, 20 mg prn) is given as 51.6%; in data set [3] ("Moderate" patients, 40 mg prn), 66.7%; in data set [3] ("Severe" patients, 20 mg prn) it was 48.5%; in data set [3] ("Severe" patients, 40 mg prn), 54.1%; in data set [3] (setting [10]), 38%; in data set [3] (setting [11]), 46%. Besides, the “Global Satisfaction: ≧Slightly Better” value in data set [3] (setting [12]) was 50%; in data set [3] (setting [13]), 50%; in data set [3] (setting [14]), 65.0%; in data set [3] (setting [15]) it was 65.2%.

For the compound `CNCCC(Oc1ccc(C(F)(F)F)cc1)c1ccccc1` (stereo not drawn) [fluoxetine], in data set [4], the “Patients initially improved with continuous dosing that lost benefit after switching to prn dosing” value was 100%.

For `Fc1ccc([C@@H]2CCNC[C@H]2COc2ccc3c(c2)OCO3)cc1` [paroxetine], the “Patients with improved ejaculatory latency” value in data set [5] (20 mg prn paroxetine) was 42%. Also, in data set [5] (paroxetine continuous then prn dosing), the “Patients initially improved with continuous dosing that lost benefit after switching to prn dosing” value is on record as 37%. Further, the “Ejaculatory latency (in words)” value in data set [6] (prn 20 mg paroxetine tablet 3-4 hours prior to intercourse) is “statistically significant increase in ejaculatory latency in the second through fourth weeks of paroxetine treatment but not in the first week”. In addition, the “Frequency of intercourse (in words)” value in data set [6] (prn 20 mg paroxetine) is reported as “significantly increased only after 3 weeks of prn paroxetine therapy”.

Turning to `CN[C@H]1CC[C@@H](c2ccc(Cl)c(Cl)c2)c2ccccc21` [sertraline], the “Conclusion on treatment of premature ejaculation (in words)” value in data set [7] is “appeared to be a useful and well tolerated oral treatment for premature ejaculation after 1 to 2 weeks”.
